Data on 1 compound can be found in patent publication EP2924040A1, “2-Amino-1-(o-tolyl)pyrrolo[3,2-b]quinoxaline-3-carboxamide derivates” (Universität Zürich, priority 2014, dated 2015).

Assay [1] has as its target T1, EphA3 (Homo sapiens, UniProt P29320).
T1 sequence (P29320 21-983): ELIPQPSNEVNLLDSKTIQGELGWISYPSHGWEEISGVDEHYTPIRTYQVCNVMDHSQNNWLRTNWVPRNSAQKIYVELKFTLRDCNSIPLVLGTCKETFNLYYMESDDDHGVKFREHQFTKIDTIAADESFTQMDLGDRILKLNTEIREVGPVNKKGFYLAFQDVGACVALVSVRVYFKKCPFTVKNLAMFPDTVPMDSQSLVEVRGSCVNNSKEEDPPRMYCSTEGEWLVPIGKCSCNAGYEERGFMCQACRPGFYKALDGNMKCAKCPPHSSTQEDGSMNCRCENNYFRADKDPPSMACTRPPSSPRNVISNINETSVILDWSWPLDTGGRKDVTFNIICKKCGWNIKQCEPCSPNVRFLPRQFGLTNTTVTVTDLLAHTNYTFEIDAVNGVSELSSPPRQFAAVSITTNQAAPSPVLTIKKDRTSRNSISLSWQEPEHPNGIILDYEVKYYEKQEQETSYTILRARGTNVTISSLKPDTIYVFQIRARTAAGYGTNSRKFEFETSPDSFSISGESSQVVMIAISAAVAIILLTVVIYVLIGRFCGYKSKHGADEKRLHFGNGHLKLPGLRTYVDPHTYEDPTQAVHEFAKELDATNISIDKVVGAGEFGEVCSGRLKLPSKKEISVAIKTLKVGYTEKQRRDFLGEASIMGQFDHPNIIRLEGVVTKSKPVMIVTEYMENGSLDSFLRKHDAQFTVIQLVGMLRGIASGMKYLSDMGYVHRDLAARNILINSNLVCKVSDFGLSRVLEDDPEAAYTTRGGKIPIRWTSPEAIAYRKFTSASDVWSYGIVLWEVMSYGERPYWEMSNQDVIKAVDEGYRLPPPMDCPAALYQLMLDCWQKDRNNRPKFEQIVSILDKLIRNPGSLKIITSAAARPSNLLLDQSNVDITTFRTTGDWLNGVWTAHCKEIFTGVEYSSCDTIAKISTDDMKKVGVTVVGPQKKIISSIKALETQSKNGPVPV
The assay is described as follows: Differential Scanning Fluorimetry. The class given is binding. The following applies: 2 µmol/L EphA3, test compound 20 µmol/L, pH 8.0; read-out: difference in the melting temperature Tm (Δ Tm). How it is done:
To a 2 µmol/L solution of EphA3 in 10mM Tris HCl buffer (pH 8.0) containing 100mM NaCl, 5X SYPRO Orange fluorescent dye together with the test compounds prediluted in DMSO at a concentration of 20 µmol/L (1.4% final DMSO concentration). A final volume of 40 µL was added per well in a 96-well plate and incubated at room temperature for 1 h. The plates were centrifuged for 3 min at 450 rcf. The temperature gradient was performed in the range of 25 to 75 °C (50 acquisitions per degree at a ramp rate of […]) using a LightCycler 480 Real-Time PCR System. The detection of protein unfolding was performed with an excitation wavelength of 488 nm and an emission of 580 nm. All measurements were performed in triplicate. Compound 2 comprises a difference in the melting temperature Tm (corresponding to the temperature at which the concentrations of folded and unfolded protein are equal) with respect to EphA3 of 11.44 °C (Δ Tm), whereas prior art compounds 17 and 87 presented differences in the melting temperature Tm with respect to EphA3 of 1.6 and 0.7 °C, respectively.
For orientation: Differential scanning fluorimetry follows unfolding on heating by fluorescence.

The test system of assay [2] is CNS SNB75. Put plainly: NCI DTP Human Tumor Cell Line Screen (SRB). The class given is cell-based. The conditions noted are these: SNB-75, CNS SNB75, 48 h. How it is done: (§1) Compound 2 was further screened against cancer cell lines by the National Cancer Institute (NCI). This screen was performed as per the description provided at http://dtp.nci.nih.gov/branches/btb/ivclsp.html. "The NCI 60 panel cell lines were grown in RPMI 1640 medium supplemented with 5% (v/v) fetal bovine serum and 2 mM L-glutamine at 37° C, 5 % CO2, 95 % air and 100 % relative humidity. Cells were seeded at 5,000 - 40,000 cells/well depending on their doubling time. After 24 hours of incubation, DMSO stock solutions of the compounds (400X) were added at 5 different concentrations (in […] serial dilutions). After 48 h cells were fixed with trichloroacetic acid (10% or 16% final concentration for adherent cells and suspension cells respectively) and incubated for 60 minutes at 4°C. After discarding the supernatant, plates were washed with water (5x) and air dried. Sulforhodamine B (SRB) solution (100 µl) at 0.4 % (w/v) in 1% acetic acid was added to each well and incubated for 10 minutes at 4°C, followed by washing with 1% acetic acid (5x) and air drying. The bound stain was solubilized with 10mM trizma base and determined by absorbance measurement on an automated plate reader at a wavelength of 515 nm. The percentage growth inhibition was calculated as followed, being Tz time zero measurements, C control growth measurements and Ti test growth experiments in the present of the drug. [(Ti-Tz)/(C-Tz)] x 100 for concentrations for which Ti>/=Tz [(Ti-Tz)/Tz] x 100 for concentrations for which Ti<Tz.
(§2) Three dose response parameters were calculated for each cell line. Growth inhibition of 50% (GI50) is calculated from [(Ti-Tz)/(C-Tz)] x 100 = 50 and corresponds to the drug concentration required in order to reduce by 50% the net protein increase in comparison to the control experiments. Total growth inhibition (TGI) is calculated from Ti = Tz. The LC50 indicates the drug concentration needed to reduce by 50% the measured protein at the end of the drug treatment as compared to that of the beginning and is derived from [(Ti-Tz)/Tz] x 100 = -50." Table 2: GI50 in a selection of cancer cell lines of the National Cancer Institute for compound 2

The subject of assay [3] is NSCLC HOP92. Put plainly: NCI DTP Human Tumor Cell Line Screen (SRB). Format: cell-based. The following applies: HOP-92, NSCLC HOP92, 48 h. The procedure:
as §1, §2

Assay [4] concerns Breast MDA-MB-231. Put plainly: NCI DTP Human Tumor Cell Line Screen (SRB). The conditions noted are these: Breast MDA-MB-231, 48 h. The class given is cell-based. How it is done: as §1, §2
The subject of assay [5] is Renal RXF393. The assay is described as follows: NCI DTP Human Tumor Cell Line Screen (SRB). Format: cell-based. The conditions noted are these: RXF 393, Renal RXF393, 48 h. The procedure:
as §1, §2

The test system of assay [6] is Leukemia K562. The assay is described as follows: NCI DTP Human Tumor Cell Line Screen (SRB). The class given is cell-based. The conditions noted are these: Leukemia K562, 48 h. How it is done: as §1, §2
Assay [7] deals with Breast HS578T. Put plainly: NCI DTP Human Tumor Cell Line Screen (SRB). The conditions noted are these: Hs-578T, 48 h. The class given is cell-based. The procedure: as §1, §2
In assay [8] the test system is Colon HT29. The assay is described as follows: NCI DTP Human Tumor Cell Line Screen (SRB). The class given is cell-based. The following applies: HT-29, Colon HT29, 48 h. How it is done:
as §1, §2

The subject of assay [9] is Renal A498. The assay is described as follows: NCI DTP Human Tumor Cell Line Screen (SRB). The class given is cell-based. The following applies: Renal A498, 48 h. The procedure:
as §1, §2

For the compound `Cc1ccc(O)cc1-n1c(N)c(C(N)=O)c2nc3ccccc3nc21` [Compound 2, 2-Amino-1-(5-hydroxy-2-methylphenyl)-1H-pyrrolo[2,3-b]quinoxaline-3-carboxamide], the ΔTm at 20 µM in [1] came to 11.4 °C. The GI50 (as a rule, the concentration that inhibits growth by half) in assay [2] was determined as 28 nM; in assay [3], 152 nM; in [4] it was 317 nM; in [5], 361 nM; in assay [6], 229 nM; in assay [7] it was 100 nM. The GI50 in assay [8] is 244 nM; in assay [9] it was 162 nM.
